Assay results published in patent publication US7968526B2, “Antisense oligonucleotides directed to ribonucleotide reductase R2 and uses thereof in the treatment of cancer” (Lorus Therapeutics Inc., priority 2003, dated 2011).
Entries after “also recorded” stand apart in the source; their conditions may differ.

Key:
[1] = system: MDA-MB-231 human breast cancer cells; test: MDA-MB-231 breast tumour xenograft in CD-1 nude mice, combination with taxol or doxorubicin (1.7); format: in vivo, human cells in mice; conditions: MDA-MB-231 (breast), CD-1; SEQ ID NO:1 10 mg/kg i.v. every other day; Taxol 10 mg/kg i.v. weekly; doxorubicin 5 mg/kg i.v. weekly
Experimental: (§1) After 52 days the mice were sacrificed and the tumours weighed. […] Mitoxantrone was administered intravenously once at the beginning of the treatments at a dose of 2 mg/kg (FIG. 4A) or once a week for four weeks at a reduced dose of 0.8 mg/kg (FIG. 4B). All treatments were stopped at day 50 (FIG. 4A) or 48 (FIG. 4B), respectively. […] Mitoxantrone was administered intravenously once at the beginning of the treatments at a dose of 2 mg/kg (FIG. 5A) or once a week for four weeks at a reduced dose of 0.8 mg/kg (FIG. 5B). All treatments were stopped at day 42 (FIG. 5A) or 38 (FIG. 5B), respectively. […] A2058 is a metastatic melanoma cell line. […] All treatments were stopped at day 24. […] Taxol was administered intravenously once a week at a dose of 10 mg/kg for three (FIG. 7A) or four weeks (FIG. 7C). Doxorubicin was administered intravenously once a week at a dose of 5 mg/kg for first three weeks (FIG. 7A) or for two weeks (FIG. 7C). All treatments were stopped at day 33 (FIG. 7A) or at day 26 (FIG. 7C), respectively. […] In FIG. 7C, antitumour activities were estimated by the inhibition of tumour volume, which was measured with calipers. Each point represents mean tumour volume calculated from 10 animals per experimental group. […] Taxol was administered intravenously once a week for first three weeks and intraperitoneally once a week for next two weeks at a dose of 10 mg/kg. Cisplatin was administered intravenously once a week for first three weeks and intraperitoneally once a week for next two weeks at a dose of 4 mg/kg. All treatments were stopped at day 40. Antitumour activities were estimated by the inhibition of tumour volume, which was measured with caliper. Each point represents mean tumour volume calculated from 9 animals per experimental group.

[2] = system: SK-OV-3 human ovary adenocarcinoma cells; test: SK-OV-3 ovary tumour xenograft in CD-1 nude mice, combination with taxol or cisplatin (1.8); format: in vivo, human cells in mice; conditions: SK-OV-3 (ovary), CD-1; SEQ ID NO:1 10 mg/kg i.v. every other day 17 times; Taxol 10 mg/kg weekly; Cisplatin 4 mg/kg weekly
Experimental: as §1

[3] = system: MDA-CDDP-S4 human in vivo-selected Cisplatin-resistant breast adenocarcinoma cells; test: MDA-CDDP-S4 Cisplatin-resistant breast adenocarcinoma, fat pad, SCID mice (2.3); parameters: species or system human cells in mice; conditions: MDA-CDDP-S4 (breast), Cisplatin resistant, SCID; SEQ ID NO:1 10 mg/kg i.v. every other day 9 times; Taxol 10 mg/kg, Cisplatin 4 mg/kg i.v. weekly x3
Experimental: (§2) BxPC-3 is a gemcitabine resistant call line. […] Gemcitabine was administered intravenously every three days at a dose of 100 mg/kg. Antitumour activities were estimated by the inhibition of tumour volume, which was measured with caliper. Each point represents mean tumour volume calculated from 10 animals per experimental group. […] Hela S3 is a hydroxyurea resistant cell line. […] Hydroxyurea was administered intraperitoneally every day at a dose of 250 mg/kg for 10 days. Cisplatin was administered intravenously once a week for three weeks at a dose of 4 mg/kg. Antitumour activities were estimated by the inhibition of tumour volume, which was measured with caliper. Each point represents mean tumour volume calculated from 10 animals per experimental group. […] Cisplatin was administered intravenously once a week for three weeks at a dose of 4 mg/kg. Taxol was administered intravenously once a week for three weeks at a dose of 10 mg/kg. Antitumour activities were estimated by the inhibition of tumour volume, which was measured with caliper. Each point represents mean tumour volume calculated from 10 animals per experimental group. […] Taxol was administered i.p. once a week at a dose of 10 mg/kg. Antitumour activities were estimated by the inhibition of tumour volume (FIG. 12A), which was measured with calipers. Each point represents mean tumour volume calculated from 10 animals per experimental group. Animals were sacrificed and tumour weights taken at the end of the study (FIG. 12C). […] Cisplatin was administered intravenously once a week for four weeks at a dose of 4 mg/kg. Taxol was administered intravenously once a week for four weeks at a dose of 20 mg/kg. Antitumour activities were estimated by the inhibition of tumour volume, which was measured with caliper. Each point represents mean tumour volume calculated from 9-10 animals per experimental group. […] Cisplatin was administered intravenously once a week for four weeks at a dose of 4 mg/kg. Antitumour activities were estimated by the inhibition of tumour volume, which was measured with caliper. Each point represents mean tumour volume calculated from 10 animals per experimental group. At the end of the study the animals were sacrificed and tumours weighed. […] Taxol was administered i.p. once a week at a dose of 10 mg/kg. Anti-tumour activity was estimated by the inhibition of tumour volume, which was measured with caliper. Each point represents mean tumour volume calculated from 10 animals per experimental group. In addition animals were sacrificed and tumour weights taken at the end of the study. […] CPT-11 was administered i.p. for 5 days at a dose of 20 mg/kg/day. Antitumour activities were estimated by the inhibition of tumour volume, which was measured with caliper. Each point represents mean tumour volume calculated from 10 animals per experimental group. Tumour weights were measured after animals were sacrificed at the end of the treatment. These cells are not resistant to CPT-11 which was used as a positive control.

[4] = system: MDA-CDDP-S4 human in vivo-selected Cisplatin-resistant breast adenocarcinoma cells; test: MDA-CDDP-S4 Cisplatin-resistant breast adenocarcinoma, fat pad, CB-17 SCID mice, combination with Taxol (2.4); parameters: species or system human cells in mice; conditions: MDA-CDDP-S4 (breast), Cisplatin resistant, SCID, SEQ ID NO:1 10 mg/kg i.v. every other day, Taxol 10 mg/kg i.p. weekly
Experimental: as §2

[5] = system: MDA-MB435-To.1 human Taxol-resistant breast adenocarcinoma cells; test: MDA-MB435-To.1 Taxol-resistant breast adenocarcinoma, fat pad, SCID mice (2.5); format: in vivo, human cells in mice
Experimental: as §2

[6] = system: Human taxol-resistant promyelocytic leukaemia cells (HL-60); test: HL-60 taxol-resistant promyelocytic leukaemia tumour in SCID mice (2.7); format: in vivo, human cells in mice; conditions: SEQ ID NO:1 10 mg/kg i.v. every other day
Experimental: BxPC-3 is a gemcitabine resistant call line. […] Gemcitabine was administered intravenously every three days at a dose of 100 mg/kg. Antitumour activities were estimated by the inhibition of tumour volume, which was measured with caliper. Each point represents mean tumour volume calculated from 10 animals per experimental group. […] Hela S3 is a hydroxyurea resistant cell line. […] Hydroxyurea was administered intraperitoneally every day at a dose of 250 mg/kg for 10 days. Cisplatin was administered intravenously once a week for three weeks at a dose of 4 mg/kg. Antitumour activities were estimated by the inhibition of tumour volume, which was measured with caliper. Each point represents mean tumour volume calculated from 10 animals per experimental group. […] Cisplatin was administered intravenously once a week for three weeks at a dose of 4 mg/kg. Taxol was administered intravenously once a week for three weeks at a dose of 10 mg/kg. Antitumour activities were estimated by the inhibition of tumour volume, which was measured with caliper. Each point represents mean tumour volume calculated from 10 animals per experimental group. […] Taxol was administered i.p. once a week at a dose of 10 mg/kg. Antitumour activities were estimated by the inhibition of tumour volume (FIG. 12A), which was measured with calipers. Each point represents mean tumour volume calculated from 10 animals per experimental group. Animals were sacrificed and tumour weights taken at the end of the study (FIG. 12C). […] Cisplatin was administered intravenously once a week for four weeks at a dose of 4 mg/kg. Taxol was administered intravenously once a week for four weeks at a dose of 20 mg/kg. Antitumour activities were estimated by the inhibition of tumour volume, which was measured with caliper. Each point represents mean tumour volume calculated from 9-10 animals per experimental group. […] Cisplatin was administered intravenously once a week for four weeks at a dose of 4 mg/kg. Antitumour activities were estimated by the inhibition of tumour volume, which was measured with caliper. Each point represents mean tumour volume calculated from 10 animals per experimental group. At the end of the study the animals were sacrificed and tumours weighed. […] Taxol was administered i.p. once a week at a dose of 10 mg/kg. Anti-tumour activity was estimated by the inhibition of tumour volume, which was measured with caliper. Each point represents mean tumour volume calculated from 10 animals per experimental group. […] Antitumour activities were estimated by the inhibition of tumour volume, which was measured with caliper. Each point represents mean tumour volume calculated from 10 animals per experimental group. Tumour weights were measured after animals were sacrificed at the end of the treatment. […]

[7] = system: Caki-1 human renal cancer cells; test: Caki-1 renal tumour xenograft, combination with 5-FU or vinblastin (1.3); format: in vivo, human cells in mice; conditions: Caki (renal), CD-1 mouse as printed; SEQ ID NO:1 10 mg/kg i.v. every other day; 5-FU 13 mg/kg/day i.p.; vinblastin 0.6 mg/kg/week i.p.
Source text: All treatments were stopped at day 22. […] All treatments were stopped at day 32. […] All treatments were stopped at day 36.

[8] = system: A498 human kidney cancer cells; test: A498 kidney tumour xenograft in SCID mice, controls and chemotherapeutics (Example 7); format: in vivo, human cells in mice; conditions: oligonucleotides 10 mg/kg/2 days i.v., 5-FU 13 mg/kg/day×5, vinblastine 1 mg/kg/week, gemcitabine 100 mg/kg/week
Source text: CD-1 athymic female nude mice, BALB/c nu/nu nude mice, SCID, and SCID beige mice were purchased from Charles River Laboratories (Montreal, Canada) and experiments were typically initiated when the mice were 6-7 weeks old. […] Each experimental group typically contained 10 mice. After the size of tumour reached a mean tumour volume of 50-100 mm^3, treatment was initiated. […] Anti-tumour activity was estimated by the measurement of tumour volume with a calliper at two-three day intervals. Tumour volume was calculated by a formula L×W×H/2, where L indicates length, W indicates width and H indicates height. Within 24 hours after the last treatment, the animals were sacrificed and tumour and body weights were measured. Results of statistical analyses of the data are presented as P values in the figure legends.
Three additional treatment groups received: 5-FU (13 mg/kg/day×5), vinblastine (1 mg/kg/week) and gemcitabine (100 mg/kg/week). […] Caliper measurements at 1-week intervals were used to calculate tumour volumes. Each point in FIG. 28C represents mean tumour volume calculated from 10 animals per experimental group (with the exception of SEQ ID NO: 1 which was 8 animals). […] After 54 days the mice were sacrificed and the A498 tumours weighed. Each bar represents the mean tumour weight and standard error calculated for each treatment group.

[9] = system: Hela S3 human cervix epitheloid carcinoma cells; test: Hela S3 hydroxyurea resistant cervix carcinoma xenograft in SCID mice; format: in vivo, human cells in mice
Experimental: as §2, with “12C). […] The effects of combined treatment were greater than either treatment alone.” for “12C).”

Q: `CC(=O)O[C@H]1C(=O)[C@@]2(C)[C@H]([C@H](OC(=O)c3ccccc3)[C@]3(O)C[C@H](OC(=O)[C@H](O)[C@@H](NC(=O)c4ccccc4)c4ccccc4)C(C)=C1C3(C)C)[C@]1(OC(C)=O)CO[C@@H]1C[C@@H]2O` [Taxol, Paclitaxel, reference compound] was tested. Which “Tumour weight as % of saline control” value [1] did it give?
A: 58%

Q: And the “tumour volume data as percentage of saline control” value [2]?
A: 49%

Q: What about the “Tumour weight as % of saline control” value [3] of the same compound?
A: 32%

Q: What about the “Tumour weight as % of saline control” value ([4]; first of two printed values (study and repeat)) of the same compound?
A: 26%

Q: What about the “Tumour weight as % of saline control” value ([4]; second of two printed values (study and repeat)) of the same compound?
A: 61%

Q: And the “Tumour weight as % of saline control” value ([5]; MDA-MB435-To.1 (breast), Taxol resistant, SCID, SEQ ID NO:1 10 mg/kg i.v. every other day 15 times, Taxol 20 mg/kg, Cisplatin 4 mg/kg i.v. weekly x4)?
A: 109%

Q: And the “Antitumour effect (FIG. 13)” value ([5]; MDA-MB435-To.1 Taxol-resistant, SCID mice, SEQ ID NO:1 10 mg/kg i.v. every other day, Cisplatin 4 mg/kg, Taxol 20 mg/kg i.v. weekly)?
A: ineffective against Taxol-resistant tumour

Q: And the “Tumour weight as % of saline control” value ([6]; HL-60 (leukemia), Taxol resistant, SCID, Taxol 10 mg/kg i.p. weekly)?
A: 119%

Q: And the “Antitumour effect (FIG. 15)” value ([6]; HL-60 taxol-resistant, SCID mice, taxol 10 mg/kg i.p. weekly)?
A: no effect on tumour growth or weight

Q: What does the source list for `CC[C@]1(O)C[C@@H]2CN(CCc3c([nH]c4ccccc34)[C@@](C(=O)OC)(c3cc4c(cc3OC)N(C)[C@H]3[C@@](O)(C(=O)OC)[C@H](OC(C)=O)[C@]5(CC)C=CCN6CC[C@]43[C@@H]65)C2)C1` [Vinblastine, vinblastine]?
A: Tumour weight as % of saline control [7]: 26%; Effect on tumour growth (volume and weight) [8]: ineffective in stabilization of the tumours; also recorded: at best, a delay in the rate of tumour growth

Q: Which results are given for `O=c1[nH]cc(F)c(=O)[nH]1` [5-FU, 5-fluorouracil]?
A: Tumour weight as % of saline control [7]: 52%; Effect on tumour growth (volume and weight) [8]: ineffective in stabilization of the tumours; also recorded: tumours that were equal in volume and weight to tumours of saline-treated animals

Q: How did the “Tumour weight as % of saline control” value [1] turn out when `COc1cccc2c1C(=O)c1c(O)c3c(c(O)c1C2=O)C[C@@](O)(C(=O)CO)C[C@@H]3O[C@H]1C[C@H](N)[C@H](O)[C@H](C)O1` [Doxorubicin] was run?
A: 41%

Q: With `NC(=O)NO` [Hydroxyurea (HU), Hydroxyurea, reference compound] as the compound, how does the “Tumour weight as % of saline control” value ([9]; Hela S3 (cervix), hydroxyurea resistant, SCID, SEQ ID NO:1 10 mg/kg i.v. every other day 6 times, Hydroxyurea 250 mg/kg i.p. daily 10 days, Cisplatin 4 mg/kg i.v. weekly x3) read?
A: 92%

Q: What about the “Antitumour effect (tumour volume, FIG. 10)” value ([9]; Hela S3 hydroxyurea resistant, SCID mice, SEQ ID NO:1 10 mg/kg i.v. every other day, Hydroxyurea 250 mg/kg i.p. daily, Cisplatin 4 mg/kg i.v. weekly) of the same compound?
A: ineffective against Hydroxyurea-resistant tumour
